Data published in patent US10406227B2, “Photoactivated molecules for light-induced modulation of the activity of electrically excitable cells and methods of using same” (University of Southern California, priority 2012, dated 2019).

Key:
chromaffin cells [1] = test: Voltage-clamp current-voltage relationship and steady-state activation before and during light; type: cell-based, mouse; settings: before vs during light illumination
Excerpt: (§1) FIGS. 5A-5H depict data from various experiments related to characteristics of RubpyC17-loaded cells. […] Inset images shown to the right of trace confirmed proper integration of RubpyC17 in patched cells. FIGS. 5C-5E show the light-induced action potential firing in chromaffin cells was not due to biophysical changes in voltage-gated ion channels as there were no significant changes in current-voltage relationships (C-D) nor in steady-state activation curve (E) in RubpyC17-loaded chromaffin cells before (open circle) or during ([…]) light illumination. […] Peak inward currents from each stimulation jump were plotted against corresponding stimulating voltages (n=6). […] Data from representative cell is shown (n=5). […] Currents resulting from capacitor-like behavior of chromaffin cell membranes during hyperpolarizing jumps to −85 mV from a resting membrane potential of −80 mV were recorded 5 min following giga-seal formation for amphoterecin B (bottom trace) or 10 min following giga-seal formation for RubpyC17 (top trace).
To examine whether light-activated RubpyC17 can directly interact and open or block endogenous ion channels, HEK293T cells were preincubated with RubpyC17, and patch-clamped in a voltage-clamp configuration. Voltage-clamp configuration allowed the cells to be clamped at a potential where most voltage-gated ion channels are closed (approximately −80 mV). […]

chromaffin cells [2] = test: Cell-attached membrane perforation test (capacitive charging transient); type: cell-based, mouse; settings: 18 μM in patch pipette; 10 minutes after gigaseal formation
Excerpt: as §1
Finally, to test whether illumination of RubpyC17 incorporated in cell membranes causes nonspecific membrane poration or other damage, 18 μM RubpyC17 was loaded inside a patch pipette and attached to a cell (gigaseal formation) in the cell-attached configuration. […]

**Q.** Which results are given for [Ru(bpy)2(bpy-C17)](PF6)2 [RubpyC17]?
**A.** effect on biophysical properties of endogenous ion channels (I-V, steady-state activation) (chromaffin cells [1]): does not alter the biophysical properties of endogenous ion channels; capacitive charging transient (membrane perforation) (chromaffin cells [2]): an increase in the capacitive charging transient was not detected
